SMILES strings stand for the structures.

Chain of ERRα ligand binding domain (ERRα-LBD) (P11474 193-421): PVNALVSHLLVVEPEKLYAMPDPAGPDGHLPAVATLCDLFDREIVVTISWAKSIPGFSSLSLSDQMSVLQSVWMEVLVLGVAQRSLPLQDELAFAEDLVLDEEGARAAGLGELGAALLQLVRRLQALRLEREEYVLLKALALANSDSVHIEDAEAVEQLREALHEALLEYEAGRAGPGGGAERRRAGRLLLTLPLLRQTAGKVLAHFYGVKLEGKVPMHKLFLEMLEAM

The test deals with ERRα ligand binding domain (ERRα-LBD) (Homo sapiens (Human), UniProt P11474). The experiment in a line: ERRα AlphaScreen Assay. Type of test: biochemical. Particulars: disruption of binding of ERRα-LBD protein to biotin-PGC1α-3 co-activator peptide; read-out: mean pIC50 (converted). The source says:
This assay was based on the knowledge that nuclear receptors interact with cofactors in a ligand dependent matter. The sites of interaction have been mapped to LXXLL motifs that are present in the co-activator sequences. Short peptide sequences that contain the LXXLL motif mimic the behavior of full length co-activators.
The ERRα AlphaScreen Assay described here relies on the interaction of the co-activator peptide with purified bacterial-expressed ERRα ligand binding domain (ERRα-LBD); upon ligand binding the ERRα protein can undergo a conformational change resulting in a loss of co-activator binding.
Compounds of the present invention were tested for their ability to disrupt binding of ERRα-LBD protein to co-activator peptide using AlphaScreen® Technology (Perkin Elmer). ERRα-LBD protein was expressed in E. coli as a 6×His Small Ubiquitin-like Modifier (SUMO) fusion. Bacterial expressed 6His-SUMO-ERRα-LBD protein was purified using affinity chromatography. All experiments were performed at room temperature in 384-well white non-binding plates (Greiner) using 50 mM Tris-HCl pH 7.5, 100 mM NaCl, 0,1% Pluronic F-127, 0.05% BSA and 5 mM TCEP as the buffer. Final DMSO concentration was 1% in the assay. Compounds were assayed in triplicate and: incubated with 0.81 nM ERRα-LBD protein and 10 μg/mL streptavidin donor beads and 10 μg/mL Ni-chelate acceptor beads for 1 hour at room temperature; followed by a 2-hour incubation with 15 nM biotin-PGC1α-3 peptide (QRRPCSELLKYLTTNDDPP) corresponding to amino acids 202 to 220.
The AlphaScreen signal was measured using an Envision Xcite plate reader (Perkin Elmer). Data was normalized, and curve fitting analysis was performed in GraphPad Prism 7 using a four-parameter dose-response fit.
As multiple IC50 values were annotated for the same compound-protein pair, a mean pIC50 for each compound was determined.
For the compound `COc1cc(C2CC(=O)Nc3n[nH]cc32)ccc1OCc1ccccc1C(F)F` (stereo not shown) [Example 49, 4-(4-{[2-(difluoromethyl)phenyl]methoxy}-3-methoxyphenyl)-2H,4H,5H,6H, 7H-pyrazolo[3,4-b]pyridin-6-one], the IC50 is 100 to 1000 nM. As for `COc1cc(C2CC(=O)Nc3n[nH]cc32)ccc1OCc1ccncc1C(F)(F)F` (stereo not shown) [Example 50, 4-(3-methoxy-4-{[3-(trifluoromethyl)pyridin-4-yl]methoxy}phenyl)-2H,4H,5H,6H,7H-pyrazolo[3,4-b]pyridin-6-one], the IC50 is 100 to 1000 nM.

With `COc1cc(C2CC(=O)Nc3n[nH]cc32)ccc1OCc1cccc2c1OCCCO2` (stereo not shown) [Example 51, 4-{4-[(3,4-dihydro-2H-1,5-benzodioxepin-6-yl)methoxy]-3-methoxyphenyl}-2H,4H,5H, 6H, 7H-pyrazolo[3,4-b]pyridin-6-one], the IC50 is 100 to 1000 nM. On to `O=C1CC(c2ccc(OCc3ccccc3Br)cc2)c2c[nH]nc2N1` (stereo not shown) [Example 58, 4-{4-[(2-bromophenyl)methoxy]phenyl}-2H,4H,5H,6H,7H-pyrazolo[3,4-b]pyridin-6-one], for which the IC50 is 100 to 1000 nM.

In the case of `O=C1CC(c2ccc(OCc3ccccc3C(F)(F)F)cc2)c2c[nH]nc2N1` (stereo not shown) [Example 59, 4-(4-{[2-(trifluoromethyl)phenyl]methoxy}phenyl)-2H,4H,5H,6H,7H-pyrazolo[3,4-b]pyridin-6-one], the IC50 was 10 to 100 nM. Next, `O=C1CC(c2ccc(OCc3ccccc3Cl)cc2)c2c[nH]nc2N1` (stereo not shown) [Example 60, 4-{4-[(2-chlorophenyl)methoxy]phenyl}-2H,4H,5H,6H,7H-pyrazolo[3,4-b]pyridin-6-one]: 100 to 1000 nM.

In the case of `O=C1CC(c2ccc(OCc3ccccc3C(F)(F)F)cn2)c2c[nH]nc2N1` (stereo not shown) [Example 63, 4-(5-{[2-(trifluoromethyl)phenyl]methoxy}pyridin-2-yl)-2H,4H,5H,6H, 7H-pyrazolo[3,4-b]pyridin-6-one], the IC50 is 100 to 1000 nM. Take `COc1cc(OCc2ccccc2C(F)(F)F)ccc1C1CC(=O)Nc2n[nH]cc21` (stereo not shown) [Example 64, 4-(2-methoxy-4-{[2-(trifluoromethyl)phenyl]methoxy}phenyl)-2H,4H,5H,6H,7H-pyrazolo[3,4-b]pyridin-6-one]: the IC50 was 10 to 100 nM.

With `COC(=O)c1cc(C2CC(=O)Nc3n[nH]cc32)ccc1OCc1ccccc1C(F)(F)F` (stereo not shown) [Example 65, methyl 5-{6-oxo-2H,4H,5H,6H,7H-pyrazolo[3,4-b]pyridin-4-yl}-2-{[2-(trifluoromethyl)phenyl]methoxy}benzoate], the IC50 was 10 to 100 nM.

As for `O=C1CC(c2ccc(OCc3ccccc3C(F)(F)F)cc2F)c2c[nH]nc2N1` (stereo not shown) [Example 66, 4-(2-fluoro-4-{[2-(trifluoromethyl)phenyl]methoxy}phenyl)-2H,4H,5H,6H, 7H-pyrazolo[3,4-b]pyridin-6-one], the IC50 was 100 to 1000 nM. Turning to `O=C1CC(c2ccc(OCc3ccccc3C(F)(F)F)c([N+](=O)[O-])c2)c2c[nH]nc2N1` (stereo not shown) [Example 67, 4-(3-nitro-4-{[2-(trifluoromethyl)phenyl]methoxy}phenyl)-2H,4H,5H,6H,7H-pyrazolo[3,4-b]pyridin-6-one], the IC50 was 100 to 1000 nM. For `O=C1CC(c2ccc(OCc3ccccc3C(F)(F)F)c(OC(F)(F)F)c2)c2c[nH]nc2N1` (stereo not shown) [Example 69, 4-[3-(trifluoromethoxy)-4-{[2-(trifluoromethyl)phenyl]methoxy}phenyl]-2H,4H,5H, 6H, 7H-pyrazolo[3,4-b]pyridin-6-one], the IC50 is 10 to 100 nM. Take `O=C1CC(c2ccc(OCc3ccccc3C(F)(F)F)c(Br)c2)c2c[nH]nc2N1` (stereo not shown) [Example 70, 4-(3-bromo-4-{[2-(trifluoromethyl)phenyl]methoxy}phenyl)-2H,4H,5H,6H, 7H-pyrazolo[3,4-b]pyridin-6-one]: the IC50 is 10 to 100 nM.

`CCc1cc(C2CC(=O)Nc3n[nH]cc32)ccc1OCc1ccccc1C(F)(F)F` (stereo not shown) [Example 71, 4-(3-ethyl-4-{[2-(trifluoromethyl)phenyl]methoxy}phenyl)-2H,4H,5H,6H,7H-pyrazolo[3,4-b]pyridin-6-one]: the IC50 is 10 to 100 nM. In the case of `O=C1CC(c2ccc(OCc3ccccc3C(F)(F)F)c(Cl)c2)c2c[nH]nc2N1` (stereo not shown) [Example 72, 4-(3-chloro-4-{[2-(trifluoromethyl)phenyl]methoxy}phenyl)-2H,4H,5H,6H, 7H-pyrazolo[3,4-b]pyridin-6-one], the IC50 is 10 to 100 nM. Consider `Cc1cc(C2CC(=O)Nc3n[nH]cc32)ccc1OCc1ccccc1C(F)(F)F` (stereo not shown) [Example 73, 4-(3-methyl-4-{[2-(trifluoromethyl)phenyl]methoxy}phenyl)-2H,4H,5H,6H,7H-pyrazolo[3,4-b]pyridin-6-one], for which the IC50 was 10 to 100 nM. Consider `O=C1CC(c2ccc(OCc3ccccc3C(F)(F)F)c(F)c2)c2c[nH]nc2N1` (stereo not shown) [Example 74, 4-(3-fluoro-4-{[2-(trifluoromethyl)phenyl]methoxy}phenyl)-2H,4H,5H,6H, 7H-pyrazolo[3,4-b]pyridin-6-one], for which the IC50 is 10 to 100 nM.

Consider `COc1cc(C2CC(=O)Nc3n[nH]cc32)c(F)cc1OCc1ccccc1C(F)(F)F` (stereo not shown) [Example 75, 4-(2-fluoro-5-methoxy-4-{[2-(trifluoromethyl)phenyl]methoxy}phenyl)-2H,4H,5H, 6H, 7H-pyrazolo[3,4-b]pyridin-6-one], for which the IC50 was 10 to 100 nM. For the compound `O=C1CC(c2ccc(OCc3ccccc3C(F)(F)F)c(C(F)(F)F)c2)c2c[nH]nc2N1` (stereo not shown) [Example 76, 4-[3-(trifluoromethyl)-4-{[2-(trifluoromethyl)phenyl]methoxy}phenyl]-2H,4H,5H,6H, 7H-pyrazolo[3,4-b]pyridin-6-one], the IC50 is 100 to 1000 nM. Consider `COc1cc(C2CC(=O)Nc3n[nH]cc32)c(F)cc1OCc1cccc(F)c1C(F)(F)F` (stereo not shown) [Example 77, 4-(2-fluoro-4-{[3-fluoro-2-(trifluoromethyl)phenyl]methoxy}-5-methoxyphenyl)-2H,4H,5H,6H,7H-pyrazolo[3,4-b]pyridin-6-one], for which the IC50 was 100 to 1000 nM.

In the case of `COc1cc(C2CC(=O)Nc3n[nH]cc32)cc(F)c1OCc1ccccc1C(F)(F)F` (stereo not shown) [Example 78, 4-(3-fluoro-5-methoxy-4-{[2-(trifluoromethyl)phenyl]methoxy}phenyl)-2H,4H,5H,6H, 7H-pyrazolo[3,4-b]pyridin-6-one], the IC50 is 100 to 1000 nM.

As for `COc1cc(C2CC(=O)Nc3ccsc32)ccc1OCc1ccccc1Cl` (stereo not shown) [Example 79, 7-{4-[(2-chlorophenyl)methoxy]-3-methoxyphenyl}-4H,5H,6H, 7H-thieno[3,2-b]pyridin-5-one], the IC50 was 100 to 1000 nM.

Take `COc1cc(C2CC(=O)Nc3nn(C)cc32)ccc1OCc1ccccc1C(F)(F)F` (stereo not shown) [Example 80, 4-(3-methoxy-4-{[2-(trifluoromethyl)phenyl]methoxy}phenyl)-2-methyl-2H,4H,5H,6H,7H-pyrazolo[3,4-b]pyridin-6-one]: the IC50 is 100 to 1000 nM. For the compound `COc1cc(C2CC(=O)Nc3n[nH]c(C)c32)ccc1OCc1ccccc1C(F)(F)F` (stereo not shown) [Example 82, 4-(3-methoxy-4-{[2-(trifluoromethyl)phenyl]methoxy}phenyl)-3-methyl-2H,4H,5H,6H,7H-pyrazolo[3,4-b]pyridin-6-one], the IC50 is 100 to 1000 nM. For the compound `COc1cc(C2CC(=O)Nc3ccsc32)ccc1OCc1ccccc1C(F)(F)F` (stereo not shown) [Example 85, 7-(3-methoxy-4-{[2-(trifluoromethyl)phenyl]methoxy}phenyl)-4H,5H,6H, 7H-thieno[3,2-b]pyridin-5-one], the IC50 is 10 to 100 nM.
